Reference: ChEMBL document CHEMBL1136420, “Comparison of library screening techniques used in the development of dsDNA ligands” (Bioorg Med Chem Lett, 2003)
Numbered stars: 1 amine (or outer) side, 2 acyl side, 3 side chain; on linkers, the order of the positions; unused ones are H or OH. Square brackets hold non-standard residues; d marks the D form. Peptide text beside a SMILES is read from it. Ala(2,4-dioxoquinazolin-3-yl) = N[C@@H](Cn1c(=O)[nH]c2ccccc2c1=O)C(=O)O; Ala(uracil-1-yl) = N[C@@H](Cn1ccc(=O)[nH]c1=O)C(=O)O; X2 = Cc1cn(C[C@H](N[*:1])C(=O)[*:2])c(=O)[nH]c1=O; X3 = Nc1ccn(C[C@H](N[*:1])C(=O)[*:2])c(=O)n1; X1 = Nc1ncnc2c1ncn2C[C@H](N[*:1])C(=O)[*:2]; 2Thi = N[C@@H](Cc1cccs1)C(=O)O; Sar = CNCC(=O)O

Each compound was assayed against Nucleic Acid (assay: Dissociation constant using ethidium-bromide displacement test).
Assay type: nucleic-acid assay

Q: How did the Kd turn out when CC(=O)N[C@@H](CCCN=C(N)N)C(=O)N[C@@H](Cn1ccc(=O)[nH]c1=O)C(=O)N(C)CC(=O)N[C@@H](Cn1c(=O)[nH]c2ccccc2c1=O)C(=O)N[C@@H](Cn1c(=O)[nH]c2ccccc2c1=O)C(=O)N[C@@H](Cc1cccs1)C(=O)N[C@@H](CCCN=C(N)N)C(N)=O (Ac-R[Ala(uracil-1-yl)][Sar][Ala(2,4-dioxoquinazolin-3-yl)][Ala(2,4-dioxoquinazolin-3-yl)][2Thi]R-NH2) was run?
A: Its Kd is 230 µM.

Q: With CC(=O)N[C@@H](CCCN=C(N)N)C(=O)N[C@@H](Cn1ccc(=O)[nH]c1=O)C(=O)N(C)CC(=O)N[C@@H](Cn1c(=O)[nH]c2ccccc2c1=O)C(=O)N[C@@H](Cn1c(=O)[nH]c2ccccc2c1=O)C(=O)N[C@@H](Cn1c(=O)[nH]c2ccccc2c1=O)C(=O)N[C@@H](CCCN=C(N)N)C(N)=O (Ac-R[Ala(uracil-1-yl)][Sar][Ala(2,4-dioxoquinazolin-3-yl)][Ala(2,4-dioxoquinazolin-3-yl)][Ala(2,4-dioxoquinazolin-3-yl)]R-NH2) as the compound, how does the Kd read?
A: The Kd was 91 µM.

Q: For CC(=O)N[C@@H](CCCN=C(N)N)C(=O)N[C@@H](Cn1ccc(=O)[nH]c1=O)C(=O)N(C)CC(=O)N[C@@H](Cn1c(=O)[nH]c2ccccc2c1=O)C(=O)N[C@@H](Cn1c(=O)[nH]c2ccccc2c1=O)C(=O)N[C@@H](Cn1ccc(=O)[nH]c1=O)C(=O)N[C@@H](CCCN=C(N)N)C(N)=O (Ac-R[Ala(uracil-1-yl)][Sar][Ala(2,4-dioxoquinazolin-3-yl)][Ala(2,4-dioxoquinazolin-3-yl)][Ala(uracil-1-yl)]R-NH2), which Kd is on record?
A: Its Kd is 610 µM.

Q: With CC(=O)N[C@@H](CCCN=C(N)N)C(=O)N[C@@H](Cn1ccc(=O)[nH]c1=O)C(=O)N(C)CC(=O)N[C@@H](Cn1c(=O)[nH]c2ccccc2c1=O)C(=O)N[C@@H](Cn1c(=O)[nH]c2ccccc2c1=O)C(=O)N[C@@H](Cn1cnc2c(N)ncnc21)C(=O)N[C@@H](CCCN=C(N)N)C(N)=O (Ac-R[Ala(uracil-1-yl)][Sar][Ala(2,4-dioxoquinazolin-3-yl)][Ala(2,4-dioxoquinazolin-3-yl)][X1]R-NH2) as the compound, how does the Kd read?
A: The Kd was 390 µM.

Q: For CC(=O)N[C@@H](CCCN=C(N)N)C(=O)N[C@@H](Cn1ccc(=O)[nH]c1=O)C(=O)N(C)CC(=O)N[C@@H](Cn1c(=O)[nH]c2ccccc2c1=O)C(=O)N[C@@H](Cn1c(=O)[nH]c2ccccc2c1=O)C(=O)N[C@@H](Cn1cc(C)c(=O)[nH]c1=O)C(=O)N[C@@H](CCCN=C(N)N)C(N)=O (Ac-R[Ala(uracil-1-yl)][Sar][Ala(2,4-dioxoquinazolin-3-yl)][Ala(2,4-dioxoquinazolin-3-yl)][X2]R-NH2), which Kd is on record?
A: The Kd was 490 µM.

Q: With CC(=O)N[C@@H](CCCN=C(N)N)C(=O)N[C@@H](Cn1ccc(=O)[nH]c1=O)C(=O)N(C)CC(=O)N[C@@H](Cn1c(=O)[nH]c2ccccc2c1=O)C(=O)N[C@@H](Cn1c(=O)[nH]c2ccccc2c1=O)C(=O)N[C@@H](Cn1ccc(N)nc1=O)C(=O)N[C@@H](CCCN=C(N)N)C(N)=O (Ac-R[Ala(uracil-1-yl)][Sar][Ala(2,4-dioxoquinazolin-3-yl)][Ala(2,4-dioxoquinazolin-3-yl)][X3]R-NH2) as the compound, how does the Kd read?
A: The Kd was 630 µM.

Q: With CC(=O)N[C@@H](CCCN=C(N)N)C(=O)N[C@@H](Cn1ccc(=O)[nH]c1=O)C(=O)N(C)CC(=O)N[C@@H](Cn1cc(C)c(=O)[nH]c1=O)C(=O)N[C@@H](Cn1c(=O)[nH]c2ccccc2c1=O)C(=O)N[C@@H](Cn1cnc2c(N)ncnc21)C(=O)N[C@@H](CCCN=C(N)N)C(N)=O (Ac-R[Ala(uracil-1-yl)][Sar][X2][Ala(2,4-dioxoquinazolin-3-yl)][X1]R-NH2) as the compound, how does the Kd read?
A: The Kd was 220 µM.
